Activity calls are given as the source filed them. The calls are words filed in the database; no cut-off is given here.
Experiments:
[1] = test system: Human immunodeficiency virus 1; assay: Antiviral activity against NNRTI-resistant HIV1 harboring reverse transcriptase Y181C mutant infected in human MT4 cells assessed as inhibition of viral replication after 72 hrs by HeLa-CD4-LTR-beta-gal assay; format: functional, organism-based; details: Human immunodeficiency virus 1, MT4, 72 h
[2] = test system: Human immunodeficiency virus 1; assay: Antiviral activity against NNRTI-resistant HIV1 harboring reverse transcriptase K103N mutant infected in human MT4 cells assessed as inhibition of viral replication after 72 hrs by HeLa-CD4-LTR-beta-gal assay; format: functional, organism-based; details: Human immunodeficiency virus 1, MT4, 72 h
[3] = test system: Human immunodeficiency virus 1; assay: Antiviral activity against NNRTI-resistant HIV1 harboring reverse transcriptase Y188L mutant infected in human MT4 cells assessed as inhibition of viral replication after 72 hrs by HeLa-CD4-LTR-beta-gal assay; format: functional, organism-based; details: Human immunodeficiency virus 1, MT4, 72 h
[4] = test system: Human immunodeficiency virus 1; assay: Antiviral activity against HIV1 expressing wild type reverse transcriptase infected in human MT4 cells assessed as inhibition of viral replication after 72 hrs by HeLa-CD4-LTR-beta-gal assay; format: functional, organism-based; details: Human immunodeficiency virus 1, MT4, 72 h
[5] = Volume of distribution at steady state in cynomolgus monkey at 1 mg/kg, iv; format: ADME, organism-based, Macaca fascicularis; parameters: dose 1 mg/kg, route intravenous; details: in vivo, read-out: Vdss
[6] = Clearance in mouse at 1 mg/kg, iv; format: ADME, organism-based; parameters: dose 1 mg/kg, route intravenous; details: in vivo
[7] = Volume of distribution at steady state in dog at 1 mg/kg, iv; format: ADME, organism-based, Canis lupus familiaris; parameters: dose 1 mg/kg, route intravenous; details: in vivo, read-out: Vdss
[8] = test system: Human immunodeficiency virus 1; assay: Antiviral activity against NNRTI-resistant HIV1 harboring reverse transcriptase Y181C/F227C double mutant infected in human MT4 cells assessed as inhibition of viral replication after 72 hrs by HeLa-CD4-LTR-beta-gal assay; format: functional, organism-based
[9] = Oral bioavailability in cynomolgus monkey at 5 mg/kg; format: ADME, organism-based, Macaca fascicularis; details: in vivo
[10] = test system: Human immunodeficiency virus 1; assay: Antiviral activity against NNRTI-resistant HIV1 harboring reverse transcriptase Y181V mutant infected in human MT4 cells assessed as inhibition of viral replication after 72 hrs by HeLa-CD4-LTR-beta-gal assay; format: functional, organism-based
[11] = test system: Human immunodeficiency virus 1; assay: Selectivity ratio of EC50 for NNRTI-resistant HIV1 harboring reverse transcriptase Y181I mutant to EC50 for HIV1 expressing wild type reverse transcriptase; format: functional
[12] = test system: Human immunodeficiency virus 1; assay: Antiviral activity against NNRTI-resistant HIV1 harboring reverse transcriptase Y181I mutant infected in human MT4 cells assessed as inhibition of viral replication after 72 hrs by HeLa-CD4-LTR-beta-gal assay; format: functional, organism-based
Cynomolgus monkey = assay: AUC (0 to infinity) in cynomolgus monkey at 5 mg/kg, po; format: ADME, organism-based, Macaca fascicularis, Plasma; parameters: time infinity, dose 5 mg/kg, route oral; details: in vivo
[13] = Clearance in dog at 1 mg/kg, iv; format: ADME, organism-based, Canis lupus familiaris; parameters: dose 1 mg/kg, route intravenous; details: in vivo
[14] = Half life in cynomolgus monkey at 1 mg/kg, iv; format: ADME, organism-based, Macaca fascicularis; parameters: dose 1 mg/kg, route intravenous; details: in vivo
[15] = Clearance in Sprague-Dawley rat at 1 mg/kg, iv; format: ADME, organism-based; parameters: dose 1 mg/kg, route intravenous; details: in vivo
Canis familiaris = assay: AUC (0 to infinity) in dog at 5 mg/kg, po; format: ADME, organism-based, Canis lupus familiaris, Plasma; parameters: time infinity, dose 5 mg/kg, route oral; details: in vivo
[16] = test system: Human immunodeficiency virus 1; assay: Selectivity ratio of EC50 for NNRTI-resistant HIV1 harboring reverse transcriptase Y188L mutant to EC50 for HIV1 expressing wild type reverse transcriptase; format: functional
[17] = test system: Human immunodeficiency virus 1; assay: Antiviral activity against NNRTI-resistant HIV1 harboring reverse transcriptase Y181C/K103N double mutant infected in human MT4 cells assessed as inhibition of viral replication after 72 hrs by HeLa-CD4-LTR-beta-gal assay; format: functional, organism-based
Mus musculus = assay: AUC (0 to infinity) in mouse at 5 mg/kg, po; format: ADME, organism-based, Plasma; parameters: time infinity, dose 5 mg/kg, route oral; details: in vivo
Rattus norvegicus = assay: AUC (0 to infinity) in Sprague-Dawley rat at 5 mg/kg, po; format: ADME, organism-based, Plasma; parameters: time infinity, dose 5 mg/kg, route oral; details: in vivo
[18] = Volume of distribution at steady state in mouse at 1 mg/kg, iv; format: ADME, organism-based; parameters: dose 1 mg/kg, route intravenous; details: in vivo, read-out: Vdss
[19] = Volume of distribution at steady state in Sprague-Dawley rat at 1 mg/kg, iv; format: ADME, organism-based; parameters: dose 1 mg/kg, route intravenous; details: in vivo, read-out: Vdss
[20] = Half life in dog at 1 mg/kg, iv; format: ADME, organism-based, Canis lupus familiaris; parameters: dose 1 mg/kg, route intravenous; details: in vivo
[21] = test system: Human immunodeficiency virus 1; assay: Antiviral activity against NNRTI-resistant HIV1 harboring reverse transcriptase Y181C/V179F double mutant infected in human MT4 cells assessed as inhibition of viral replication after 72 hrs by HeLa-CD4-LTR-beta-gal assay; format: functional, organism-based
[22] = Oral bioavailability in mouse at 5 mg/kg; format: ADME, organism-based; details: in vivo
[23] = test system: Human immunodeficiency virus 1; assay: Selectivity ratio of EC50 for NNRTI-resistant HIV1 harboring reverse transcriptase Y181V mutant to EC50 for HIV1 expressing wild type reverse transcriptase; format: functional
[24] = Half life in Sprague-Dawley rat at 1 mg/kg, iv; format: ADME, organism-based; parameters: dose 1 mg/kg, route intravenous; details: in vivo
[25] = Oral bioavailability in dog at 5 mg/kg; format: ADME, organism-based, Canis lupus familiaris; details: in vivo
[26] = test system: Human immunodeficiency virus 1; assay: Antiviral activity against NNRTI-resistant HIV1 harboring reverse transcriptase Y181I/V179F double mutant infected in human MT4 cells assessed as inhibition of viral replication after 72 hrs by HeLa-CD4-LTR-beta-gal assay; format: functional, organism-based
[27] = Half life in mouse at 1 mg/kg, iv; format: ADME, organism-based; parameters: dose 1 mg/kg, route intravenous; details: in vivo
[28] = Clearance in cynomolgus monkey at 1 mg/kg, iv; format: ADME, organism-based, Macaca fascicularis; parameters: dose 1 mg/kg, route intravenous; details: in vivo
[29] = Oral bioavailability in Sprague-Dawley rat at 5 mg/kg; format: ADME, organism-based; details: in vivo
[30] = test system: Human immunodeficiency virus 1; assay: Ratio of EC50 for HIV1 expressing wild type reverse transcriptase in presence of human serum albumin and human alpha-1 acid glycoprotein to EC50 for HIV1 expressing wild type reverse transcriptase; format: functional
[31] = Dissociation constant, pKa of the compound; format: physicochemical

## CCCc1nc(Cl)c(C(=O)NCc2ccc(Cl)c(Oc3cc(Cl)cc(C#N)c3)c2F)[nH]1
[1]
  EC50: 1.3 nM
[2]
  EC50: 0.4 nM
[3]
  EC50: 240 nM
[4]
  EC50: 0.3 nM

## Cc1nc(Cl)c(C(=O)NCc2ccc(Cl)c(Oc3cc(Cl)cc(C#N)c3)c2F)[nH]1
[1]
  EC50: 0.3 nM
[3]
  EC50: 11 nM
[4]
  EC50: 0.2 nM

## N#Cc1cc(Cl)cc(Oc2c(Cl)ccc(CNC(=O)c3[nH]c(N)nc3Cl)c2F)c1
[3]
  EC50: 0.9 nM
[4]
  EC50: 0.1 nM

## N#Cc1cc(Cl)cc(Oc2c(Br)ccc(CNC(=O)c3[nH]c(N)nc3Cl)c2F)c1
[5]
  Vd: 1.8 L/kg
[6]
  clearance: 8.2 mL/min/kg
[7]
  Vd: 0.9 L/kg
[8]; Human immunodeficiency virus 1, MT4, 72 h
  EC50: 3.2 nM
[9]
  bioavailability: 34%
[10]
  inhibition: Active
[11]
  Ratio EC50: <3
[12]
  inhibition: Active
Cynomolgus monkey
  AUC: 6460 ng·h/mL
[13]
  clearance: 2.8 mL/min/kg
[14]
  half-life: 6.1 h
[15]
  clearance: 28.6 mL/min/kg
Canis familiaris
  AUC: 14300 ng·h/mL
[16]
  Ratio EC50: 5
[17]
  inhibition: Active
Mus musculus
  AUC: 9600 ng·h/mL
Rattus norvegicus
  AUC: 2510 ng·h/mL
[18]
  Vd: 2.1 L/kg
[19]
  Vd: 3.6 L/kg
[20]
  half-life: 4.3 h
[3]
  EC50: 0.5 nM
[21]
  inhibition: Active
[22]
  bioavailability: 94%
[23]
  Ratio EC50: <3
[24]
  half-life: 2.2 h
[25]
  bioavailability: 47%
[26]
  inhibition: Active
[27]
  half-life: 3.1 h
[28]
  clearance: 4.7 mL/min/kg
[29]
  bioavailability: 84%
[30]
  Ratio EC50: 71
[4]
  EC50: 0.1 nM

## Cc1cc(S(N)(=O)=O)ccc1NC(=O)COc1ccc(Cl)cc1C(=O)c1cc(Cl)cc(C#N)c1
[1]
  EC50: 0.5 nM
[2]
  EC50: 0.5 nM
[3]
  EC50: 18 nM
[4]
  EC50: 0.3 nM

## N#Cc1cc(Cl)cc(Oc2c(Cl)ccc(CNC(=O)c3cnc[nH]3)c2F)c1
[1]
  EC50: 260 nM
[2]
  EC50: 48 nM
[3]
  EC50: > 1000 nM
[4]
  EC50: 9.7 nM

## Cc1cc(C#N)cc(C)c1Oc1nc(Nc2ccc(C#N)cc2)nc(N)c1Br [ETRAVIRINE]
[1]
  EC50: 2.4 nM
[8]
  inhibition: inactive
[2]
  EC50: 0.4 nM
[17]
  inhibition: inactive
[3]
  EC50: 0.9 nM
[21]
  inhibition: inactive
[23]
  Ratio EC50: 83
[26]
  inhibition: inactive
[30]
  Ratio EC50: 13
[4]
  EC50: 0.6 nM

## N#Cc1cc(Cl)cc(Oc2c(Cl)ccc(CNC(=O)c3[nH]cnc3Cl)c2F)c1
[1]
  EC50: 0.2 nM
[31]
  pKa: 8.9
[3]
  EC50: 5.6 nM
[4]
  EC50: 0.1 nM

## Cc1nc[nH]c1C(=O)NCc1ccc(Cl)c(Oc2cc(Cl)cc(C#N)c2)c1F
[1]
  EC50: 15 nM
[2]
  EC50: 7.2 nM
[31]
  pKa: > 12
[3]
  EC50: > 1000 nM
[4]
  EC50: 2.4 nM

## N#Cc1cc(Cl)cc(Oc2c(Cl)ccc(CNC(=O)c3ccc(S(N)(=O)=O)cc3Cl)c2F)c1
[1]
  EC50: 180 nM
[2]
  EC50: 60 nM
[3]
  EC50: > 1000 nM
[4]
  EC50: 13 nM

## N#Cc1cc(Cl)cc(Oc2c(Cl)ccc(CNC(=O)c3[nH]c(O)nc3Cl)c2F)c1
[1]
  EC50: 57 nM
[2]
  EC50: 14 nM
[3]
  EC50: > 1000 nM
[4]
  EC50: 5.3 nM

## N#Cc1cc(Cl)cc(Oc2c(Cl)ccc(CNC(=O)c3[nH]c(CO)nc3Cl)c2F)c1
[1]
  EC50: 1.2 nM
[3]
  EC50: 24 nM
[4]
  EC50: 0.3 nM

## Cn1cncc1C(=O)NCc1ccc(Cl)c(Oc2cc(Cl)cc(C#N)c2)c1F
[1]
  EC50: > 1000 nM
[2]
  EC50: 460 nM
[3]
  EC50: > 1000 nM
[4]
  EC50: 120 nM

## N#Cc1cc(Cl)cc(Oc2c(Cl)ccc(CNC(=O)c3cc4ccccc4[nH]3)c2F)c1
[1]
  EC50: 58 nM
[2]
  EC50: 26 nM
[3]
  EC50: > 1000 nM
[4]
  EC50: 8.9 nM

## N#Cc1cc(Cl)cc(Oc2c(Cl)ccc(CNC(=O)c3nc4ccccc4[nH]3)c2F)c1
[1]
  EC50: 27 nM
[2]
  EC50: 18 nM
[3]
  EC50: > 1000 nM
[4]
  EC50: 5.1 nM

## O=C1Nc2ccc(Cl)cc2[C@@](C#CC2CC2)(C(F)(F)F)O1 [EFAVIRENZ]
[1]
  EC50: 1 nM
[2]
  EC50: 20 nM
[3]
  EC50: 157 nM

## N#Cc1cc(Cl)cc(Oc2c(Cl)ccc(CNC(=O)c3[nH]cnc3C(F)(F)F)c2F)c1
[1]
  EC50: 1.4 nM
[2]
  EC50: 0.7 nM
[3]
  EC50: 320 nM
[4]
  EC50: 0.1 nM

## N#Cc1cc(Cl)cc(Oc2c(Cl)ccc(CNC(=O)c3cc4ccccc4o3)c2F)c1
[1]
  EC50: 340 nM
[2]
  EC50: 380 nM
[3]
  EC50: > 1000 nM
[4]
  EC50: 52 nM

## N#Cc1cc(Cl)cc(Oc2c(Cl)ccc(CNC(=O)c3[nH]cnc3Br)c2F)c1
[1]
  EC50: 0.2 nM
[3]
  EC50: 7.1 nM
[4]
  EC50: 0.1 nM

## Cc1cc(/C=C/C#N)cc(C)c1Nc1ccnc(Nc2ccc(C#N)cc2)n1 [RILPIVIRINE]
[8]
  inhibition: inactive
[17]
  inhibition: inactive
[3]
  EC50: 3.7 nM
[21]
  inhibition: inactive
[26]
  inhibition: inactive

## CCc1nc(Cl)c(C(=O)NCc2ccc(Cl)c(Oc3cc(Cl)cc(C#N)c3)c2F)[nH]1
[1]
  EC50: 0.8 nM
[3]
  EC50: 76 nM
[4]
  EC50: 0.3 nM
